22 compounds from patent US10736883B2, “Triazole furan compounds as agonists of the APJ receptor” (AMGEN INC., priority 2016, dated 2020) can be followed below.

The target in this test is APJ receptor (Homo sapiens (Human), UniProt P35414). Briefly: [35S]GTPγS binding assay on membranes from CHO cells stably expressing human APJ receptor. In kind it is biochemical. As to conditions: membranes of CHO cells stably expressing human APJ receptor, means of several independent experiments, read-out: Activity hAPJ SPA EC50 IP. In short, it runs like this: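 EC50 values were obtained by non-linear regression of [35S]GTPγS (0.2 nM) binding after 90 min at RT, with nonspecific binding defined by 100 μM GTPγS. Reactions used human APJ–expressing CHO cell membranes on WGA PS beads in HEPES pH 7.5 buffer with 5 mM MgCl2, 200 mM NaCl, 3 μM GDP and 0.1% BSA.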
APJ receptor, sequence (P35414 whole entry): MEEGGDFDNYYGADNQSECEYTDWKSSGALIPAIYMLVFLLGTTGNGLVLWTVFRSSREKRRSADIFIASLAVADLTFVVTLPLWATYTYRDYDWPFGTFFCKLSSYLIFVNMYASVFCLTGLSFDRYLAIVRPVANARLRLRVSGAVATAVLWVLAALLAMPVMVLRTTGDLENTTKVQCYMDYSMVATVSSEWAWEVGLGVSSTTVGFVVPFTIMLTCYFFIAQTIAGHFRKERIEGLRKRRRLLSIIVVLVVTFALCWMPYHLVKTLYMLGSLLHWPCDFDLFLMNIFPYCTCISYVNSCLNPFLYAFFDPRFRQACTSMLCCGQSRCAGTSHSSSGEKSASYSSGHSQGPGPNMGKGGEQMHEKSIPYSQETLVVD
A general note: GTPγS is a poorly hydrolysed GTP analogue; its binding reports G protein activation.

On to `COc1cccc(OC)c1-n1c(NS(=O)(=O)CCc2ncc(C)cn2)nnc1-c1ccco1` [Example 39.0, N-(4-(2,6-dimethoxyphenyl)-5-(2-furanyl)-4H-1,2,4-triazol-3-yl)-2-(5-methyl-2-pyrimidinyl)ethanesulfonamide], for which the EC50 stood at 6.6 nM. Turning to `COc1cccc(OC)c1-n1c(NS(=O)(=O)[C@@H]2COCC[C@@H]2O)nnc1-c1ccc(C)o1` (single isomer, unassigned) [Example 402.0], the EC50 is 65 nM.

`COc1cccc(OC)c1-n1c(NS(=O)(=O)[C@H]2C[C@@H](O)CN(c3nc(C)cc(C)n3)C2)nnc1-c1ccc(C)o1` (single isomer, unassigned) [Example 336.0, (3S,5R)—N-(4-(2,6-Dimethoxyphenyl)-5-(5-methylfuran-2-yl)-4H-1,2,4-triazol-3-yl)-1-(4,6-dimethylpyrimidin-2-yl)-5-hydroxypiperidine-3-sulfonamide or (3R,5S)—N-(4-(2,6-dimethoxyphenyl)-5-(5-methylfuran-2-yl)-4H-1,2,4-triazol-3-yl)-1-(4,6-dimethylpyrimidin-2-yl)-5-hydroxypiperidine-3-sulfonamide]: the EC50 is 0.55 nM. In the case of `COc1ccccc1-n1c(NS(=O)(=O)[C@@H](C)Cc2ncc(F)cn2)nnc1-c1ccc(C)o1` (racemic) [Example 295.0, (2S)-1-(5-fluoro-2-pyrimidinyl)-N-(4-(2-methoxyphenyl)-5-(5-methyl-2-furanyl)-4H-1,2,4-triazol-3-yl)-2-propanesulfonamide and (2R)-1-(5-fluoro-2-pyrimidinyl)-N-(4-(2-methoxyphenyl)-5-(5-methyl-2-furanyl)-4H-1,2,4-triazol-3-yl)-2-propanesulfonamide] it was 6.1 nM. The same measure for `COc1cccc(OC)c1-n1c(NS(=O)(=O)[C@H](C)Cc2cnc(C)cn2)nnc1-c1ccc(C)o1` (single isomer, unassigned) [Example 24.0, (2R)—N-(4-(2,6-dimethoxyphenyl)-5-(5-methyl-2-furanyl)-4H-1,2,4-triazol-3-yl)-1-(5-methyl-2-pyrazinyl)-2-propanesulfonamide or (2S)—N-(4-(2,6-dimethoxyphenyl)-5-(5-methyl-2-furanyl)-4H-1,2,4-triazol-3-yl)-1-(5-methyl-2-pyrazinyl)-2-propanesulfonamide]: 0.36 nM; for `COc1cccc(OC)c1-n1c(NS(=O)(=O)[C@@H](C)[C@](C)(F)c2ncc(C#N)cn2)nnc1-c1ccc(C)o1` (single isomer, unassigned) [Example 230.0]: 0.41 nM. Take `COc1cccc(OC)c1-n1c(NS(=O)(=O)[C@H](C)CN2C(=O)CCC[C@]2(C)C#N)nnc1-c1ccco1` (single isomer, unassigned) [Example 342.0]: the EC50 turned out to be 121 nM.

For the compound `COc1cccc(OC)c1-n1c(NS(=O)(=O)[C@H]2C[C@H](OC)CN(c3ncc(F)cn3)C2)nnc1-c1ccco1` (single isomer, unassigned) [Example 178.0], the concentration for a half-maximal effect (EC50) was determined as 3 nM. The same measure for `COc1ccnc(N2C[C@H](O)C[C@H](S(=O)(=O)Nc3nnc(-c4ccc(C)o4)n3-c3c(OC)cccc3OC)C2)n1` (mixture of isomers) [Example 324.0, (3S,5R)—N-(4-(2,6-Dimethoxyphenyl)-5-(5-methyl-2-furanyl)-4H-1,2,4-triazol-3-yl)-5-hydroxy-1-(4-methoxy-2-pyrimidinyl)-3-piperidinesulfonamide and (3R,5S)—N-(4-(2,6-dimethoxyphenyl)-5-(5-methyl-2-furanyl)-4H-1,2,4-triazol-3-yl)-5-hydroxy-1-(4-methoxy-2-pyrimidinyl)-3-piperidinesulfonamide]: 0.21 nM.

In the case of `COc1cccc(OC)c1-n1c(NS(=O)(=O)[C@@H](C)[C@H](O)c2cc3ccccn3n2)nnc1-c1ccc(C)o1` (single isomer, unassigned) [Example 266.0, (1R,2S)—N-(4-(2,6-Dimethoxyphenyl)-5-(5-methyl-2-furanyl)-4H-1,2,4-triazol-3-yl)-1-hydroxy-1-pyrazolo[1,5-a]pyridin-2-yl-2-propanesulfonamide or (1S,2R)—N-(4-(2,6-dimethoxyphenyl)-5-(5-methyl-2-furanyl)-4H-1,2,4-triazol-3-yl)-1-hydroxy-1-pyrazolo[1,5-a]pyridin-2-yl-2-propanesulfonamide], the EC50 stood at 0.21 nM. The same measure for `COc1cccc(OC)c1-n1c(NS(=O)(=O)[C@H](C)[C@H](O)c2cccc(Cl)n2)nnc1-c1ccc(C)o1` (stereo in doubt) [Example 85.0]: 0.17 nM; for `COc1cccc(OC)c1-n1c(NS(=O)(=O)[C@@H](C)[C@H](C)c2ncc(C)cn2)nnc1-c1ccc(C)o1` [Example 262.0, (2S,3R)-N-(4-(2,6-dimethoxyphenyl)-5-(5-methylfuran-2-yl)-4H-1,2,4-triazol-3-yl)-3-(5-methylpyrimidin-2-yl)butane-2-sulfonamide]: 0.07 nM; for `COc1ncnc(OC)c1-n1c(NS(=O)(=O)[C@@H](C)[C@H](OC)c2ncc(Cl)cn2)nnc1-c1ccc(C)o1` [Example 384.0, (1R,2S)-1-(5-chloro-2-pyrimidinyl)-N-(4-(4,6-dimethoxy-5-pyrimidinyl)-5-(5-methyl-2-furanyl)-4H-1,2,4-triazol-3-yl)-1-methoxy-2-propanesulfonamide]: 0.15 nM.

`COc1cccc(OC)c1-n1c(NS(=O)(=O)C2C[C@@H]2c2ccc(Cl)cc2)nnc1-c1ccco1` (single isomer, unassigned) [Example 191.0, (1R,2S)-2-(4-Chlorophenyl)-N-(4-(2,6-dimethoxyphenyl)-5-(2-furanyl)-4H-1,2,4-triazol-3-yl)cyclopropanesulfonamide or (1S,2R)-2-(4-chlorophenyl)-N-(4-(2,6-dimethoxyphenyl)-5-(2-furanyl)-4H-1,2,4-triazol-3-yl)cyclopropanesulfonamide]: the concentration for a half-maximal effect (EC50) came to 15 nM. On to `COc1cccc(OC)c1-n1c(NS(=O)(=O)CCc2ncc(Cl)cc2CCN2CCC2)nnc1-c1ccco1` [Example 235.0, 2-(3-(2-(1-Azetidinyl)ethyl)-5-chloro-2-pyridinyl)-N-(4-(2,6-dimethoxyphenyl)-5-(2-furanyl)-4H-1,2,4-triazol-3-yl)ethanesulfonamide], for which the EC50 stood at 0.56 nM. In the case of `COc1cccc(OC)c1-n1c(NS(=O)(=O)[C@@H](C)[C@@H](O)c2cn3ccccc3n2)nnc1-c1ccc(C)o1` (single isomer, unassigned) [Example 308.0, (1S,2S)—N-(4-(2,6-Dimethoxyphenyl)-5-(5-methyl-2-furanyl)-4H-1,2,4-triazol-3-yl)-1-hydroxy-1-imidazo[1,2-a]pyridin-2-yl-2-propanesulfonamide or (1R,2R)—N-(4-(2,6-dimethoxyphenyl)-5-(5-methyl-2-furanyl)-4H-1,2,4-triazol-3-yl)-1-hydroxy-1-imidazo[1,2-a]pyridin-2-yl-2-propanesulfonamide] it was 33 nM; in that of `COc1cccc(OC)c1-n1c(NS(=O)(=O)[C@@H](C)[C@H](O)c2cccc3nccn23)nnc1-c1ccc(C)o1` (single isomer, unassigned) [Example 299.0, (1R,2S)—N-(4-(2,6-Dimethoxyphenyl)-5-(5-methyl-2-furanyl)-4H-1,2,4-triazol-3-yl)-1-hydroxy-1-imidazo[1,2-a]pyridin-5-yl-2-propanesulfonamide or (1S,2R)—N-(4-(2,6-dimethoxyphenyl)-5-(5-methyl-2-furanyl)-4H-1,2,4-triazol-3-yl)-1-hydroxy-1-imidazo[1,2-a]pyridin-5-yl-2-propanesulfonamide], 11 nM. The same measure for `COc1cccc(OC)c1-n1c(NS(=O)(=O)CCN2C(=O)N(C)CC[C@H]2C)nnc1-c1ccc(C)o1` (mixture of isomers) [Example 160.0, N-(4-(2,6-Dimethoxyphenyl)-5-(5-methyl-2-furanyl)-4H-1,2,4-triazol-3-yl)-2-((6R)-3,6-dimethyl-2-oxotetrahydro-1 (2H)-pyrimidinyl)ethanesulfonamide and N-(4-(2,6-dimethoxyphenyl)-5-(5-methyl-2-furanyl)-4H-1,2,4-triazol-3-yl)-2-((6S)-3,6-dimethyl-2-oxotetrahydro-1(2H)-pyrimidinyl)ethanesulfonamide]: 0.5 nM. In the case of `COc1cccc(OC)c1-n1c(NS(=O)(=O)[C@@H](C)[C@H](O)c2ccc(F)c(C#N)c2)nnc1-c1ccc(C)o1` (single isomer, unassigned) [Example 81.0] it was 1.1 nM; in that of `COc1cccc(OC)c1-n1c(NS(=O)(=O)[C@H](C)Cc2ncc(F)cn2)nnc1-c1cc(C)c(C)o1` (single isomer, unassigned) [Example 89.0, (R)—N-(4-(2,6-Dimethoxyphenyl)-5-(4,5-dimethylfuran-2-yl)-4H-1,2,4-triazol-3-yl)-1-(5-fluoropyrimidin-2-yl)propane-2-sulfonamide or (S)—N-(4-(2,6-dimethoxyphenyl)-5-(4,5-dimethylfuran-2-yl)-4H-1,2,4-triazol-3-yl)-1-(5-fluoropyrimidin-2-yl)propane-2-sulfonamide], 1.9 nM; in that of “(1S,2R)-N-(4-(2,6-dimethoxyphenyl)-5-(5-methyl-2-furanyl)-4H-1,2,4-triazol-3-yl)-1-hydroxy-1-(5-methyl-2-pyrazinyl)-2-propanesulfonamide or (1R,2S)-N-(4-(2,6-dimethoxyphenyl)-5-(5-methyl-2-furanyl)-4H-1,2,4-triazol-3-yl)-1-hydroxy-1-(5-methyl-2-pyrazinyl)-2-propanesulfonamide [Example 213.0]”, 0.12 nM.

For the compound `COc1cccc(OC)c1-n1c(NS(=O)(=O)[C@H](C)Cc2ccc(Cl)cn2)nnc1-c1ccco1` (single isomer, unassigned) [Example 11.0, (2R)-1-(5-chloro-2-pyridinyl)-N-(4-(2,6-dimethoxyphenyl)-5-(2-furanyl)-4H-1,2,4-triazol-3-yl)-2-propanesulfonamide or (2S)-1-(5-chloro-2-pyridinyl)-N-(4-(2,6-dimethoxyphenyl)-5-(2-furanyl)-4H-1,2,4-triazol-3-yl)-2-propanesulfonamide], the EC50 is 0.14 nM.

By EC50 is commonly meant the concentration giving half of the maximal effect.
